Assay results published in ChEMBL document CHEMBL3217708, “2-Anilinonicotinyl linked 1,3,4-oxadiazole derivatives: Synthesis, antitumour activity and inhibition of tubulin polymerization” (2011).

Legend:
Tubulin (Bos taurus) = Tubulin (Bos taurus) (UniProt Q6B856+Q862L2+Q862F3); test: Inhibition of bovine brain tubulin polymerization at 3 uM measured for 1 hr by fluorimetric assay
HepG2 = test: Growth inhibition of human HepG2 cells after 48 hrs by sulforhodamine B assay; format: functional; details: HepG2, 48 h
A549 [1] = test: Cell cycle arrest in human A549 cells assessed as accumulation at G2/M phase at 1 uM after 48 hrs by propidium iodide staining based flow cytometry (reference value: 10%); format: functional
A549 [2] = test: Growth inhibition of human A549 cells after 48 hrs by sulforhodamine B assay; format: functional; details: A549, 48 h
A549 [3] = test: Cell cycle arrest in human A549 cells assessed as accumulation at S phase at 1 uM after 48 hrs by propidium iodide staining based flow cytometry (reference value: 10%); format: functional
A549 [4] = test: Cell cycle arrest in human A549 cells assessed as accumulation at G1 phase at 1 uM after 48 hrs by propidium iodide staining based flow cytometry (reference value: 78%); format: functional
A549 [5] = test: Induction of apoptosis in human A549 cells assessed as caspase-3 activation at 1 uM after 24 hrs by fluorimetry relative to control; format: functional
DU-145 = test: Growth inhibition of human DU145 cells after 48 hrs by sulforhodamine B assay; format: functional; details: DU-145, 48 h
HeLa = test: Growth inhibition of human HeLa cells after 48 hrs by sulforhodamine B assay; format: functional
A549 [6] = test: Inhibition of alpha-tubulin polymerization in human A549 cells assessed as ratio of soluble to polymerized tubulin at 1 uM after 24 hrs by western blot analysis; format: functional
A549 [7] = test: Induction of apoptosis in human A549 cells assessed as caspase-9 activation at 1 uM after 24 hrs by fluorimetry relative to control; format: functional
MDA-MB-231 = test: Growth inhibition of human MDA-MB-231 cells after 48 hrs by sulforhodamine B assay; format: functional; details: MDA-MB-231, 48 h

Structure (SMILES) | inhibition (Tubulin (Bos taurus)) | GI50 (HepG2) | Activity (A549 [1]) | GI50 (A549 [2]) | Activity (A549 [3]) | Activity (A549 [4]) | fold change (FC) (A549 [5]) | GI50 (DU-145) | GI50 (HeLa) | Ratio (A549 [6]) | fold change (FC) (A549 [7]) | GI50 (MDA-MB-231)
COc1cc(Nc2ncccc2-c2nnc(Nc3ccc(Cl)cc3)o2)cc(OC)c1OC | 38% |  |  |  |  |  |  |  |  |  |  | 
COc1cc(Nc2nnc(-c3cccnc3Nc3cc(OC)c(OC)c(OC)c3)o2)cc(OC)c1OC | 41% |  |  |  |  |  |  |  |  |  |  | 
COC(=O)Nc1nc2cc(C(=O)c3cccs3)ccc2[nH]1 [NOCODAZOLE] | 70% | 760 nM | 18% | 210 nM | 25% | 55% | 4 | 190 nM | 750 nM | 6 | 4 | 150 nM
